Assays:
[1] = Stain removal from calcium deficient hydroxyapatite disks (human tooth model), tea stain; conditions: disk T: 1 mL of 3% hydrogen peroxide + 0.5 g sodium bicarbonate, applied twice, 5 minutes, water soak 45 minutes
Description: Tea staining Solution: 200 mL of high-purity deionized (HPDI) water was heated to boiling in a 500-mL beaker. The beaker was removed from heat and 4 Lipton™ tea bags were added. The tea bags were allowed to soak for 5 minutes. The tea bags were pressed with a spatμLa upon removal to remove liquid.
Tea staining Procedure: A calcium-deficient hydroxyapatite (HAP) disk (Clarkson Chromatography Products) was placed into a 50-mL centrifuge tube with 10 mL of tea solution. The centrifuge tube was gently shaken by hand for 15 minutes. The tea solution was decanted and replaced with 10 mL of HPDI water and vortexed for 30 seconds. The water was decanted and replaced with 10 additional mL of HPDI water and vortexed for 30 seconds. The disk was removed with forceps and patted dry with a tissue. The disk was allowed to air dry at room temperature for at least one hour.
Oxidation resistant chelating buffer: 0.25M 1-Hydroxyethylidenediphosphonic acid (etridonic acid) (Dequest® 2010, Thermphos) (HEPA) was pH adjusted by microtitration with 10N NaOH. 1.28 g of 1-Hydroxyethylidenediphosphonic acid was to a 25-mL volumetric flask and brought to volume with HPDI water. The solution was transferred to a 50-mL beaker with a stir bar and pH adjusted using 10.04N NaOH, monitored with a calibrated pH meter. Aliquat 336® (Cognis) (also suitable is Aliquat 134®) (N-methyl-tri-(n-octyl)ammonium chloride), (N-methyl TOA) or “HEPA” chelating pH Buffer: 2.5-μL of N-methyl TOA was added to 5 mL of pH 7 HEPA buffer and sonicated for 1 minute. pH 7 Sodium Dodecyl Sulfate (SDS)/HEPA Buffer: 10 mg of SDS was added to 5 mL of pH 7 HEPA buffer and sonicated for 1 minute. pH 8 SDS/HEPA Buffer: 10 mg of SDS was added to 5 mL of pH 8 HEPA buffer and sonicated for 1 minute.
• A. A tea stained disk was placed into the bowl of the bowl of a watch glass and 100 μL of pH 7 HEPA buffer was pipetted onto the disk surface. 3.7 mg of potassium ferrate(VI) was added to the disk surface and mixed gently. […] The disk was rinsed at 10 minutes with HPDI water. […] 1 mL of pH 7 HEPA buffer was added followed by 9 mL of HPDI water. 9.7 mg of potassium ferrate(VI) was added. The tube was gently hand shaken for 10 minutes. The disk was removed and rinsed with HPDI water. […] 10 mg of potassium ferrate(VI) was added to 1 mL of pH 7 HEPA buffer in a 50 mL centrifuge tube. 9 mL HPDI water was added, and the solution was shaken for a few seconds followed by the addition of a tea stained HAP disk. The disk was removed at 10 minutes and rinsed with HPDI water. […] 1.3 mg of potassium ferrate(VI) added and mixed into the solution.

[2] = Reactivity of ferrate(VI) in nonpolar media; type: physicochemical; conditions: such as oils, solvents, waxes

| Compound | L* (lightness/darkness) [1] | a* (blue/red) [1] | appearance of disk after treatment [1] | b* (yellow/green) [1] | reflectance of visible light at 450 nm [1] | reflectance of visible light at 750 nm [1] | ΔE (versus tea stain) [1] | reactivity in nonpolar media [2] |
| --- | --- | --- | --- | --- | --- | --- | --- | --- |
| OO [hydrogen peroxide, reference compound] | 96.9 | 0.4 | Much of the color was removed | 0.3 | 89.892 | 94.030 | 13.44 | – |
| ferrate(VI) | – | – | – | – | – | – | – | unreactive |

Reference: US8663607B2, “Ferrate(VI)-containing compositions and methods of using ferrate(VI)” (Battelle Memorial Institute, priority 2007, dated 2014)
